Source: patent US5871779A, “Treatment of arthropathies with vanadate compounds or analogues thereof” (Mount Sinai Hospital Corporation, priority 1996, dated 1999)
Where “and” joins values, the source holds several entries; their conditions need not be identical. Equal values may be shown once.

Legend:
[1] = system: MDAY-D2 tumor; experiment: BMOV loaded microspheres on tumor growth (Example 19); format: in vivo, mice; details: BMOV solution
Method: The effect of slow releasing microspheres loaded with 20% BNOV on tumor growth in mice was investigated as follows.
On day 6 the mice were divided into 6 groups as follows: group 1, empty control; group 3, tumor control; group 3, […]; group 4, injected IP with 20 mg palla beads containing 5 mg of BMOV; group 5, injected IP with 10 mg of BMOV beads on day 6 and day 9 respectively and; group 6, injected intramuscularly with 10 mg of BMOV beads on day 6 and day 9. On day 16, the mice were sacrificed and tumors were dissected.

[2] = system: stromelysin; experiment: synovial stromelysin expression in arthritic rats (Northern blot); format: in vivo, rat; details: BMOV-treated (with NAC) vs control, Day 18
Method: (§1) Collagenase, stromelysin, and IL-1 expression were quantitated in each group of rats. Selected rats in each group were sacrificed on Day 18 post arthritis onset to measure collagenase, stromelysin, and IL-1 expression via the Northern Blot. Synovial biopsies were pooled and homogenized in the presence of RNASTAT-60 (Tel Test). Total RNA was isolated following the manufacturer's instructions, washed in 70% ethanol, and dissolved in 30 μl RNA loading buffer (Sigma) containing ethidium bromide. The RNA was electrophoresed on a 1% agarose formaldehyde gel and transferred to 0.45 μm nylon filter membrane (Magna NT, MSL). The blot was prehybridised in 50% formamide, 5×SSPE, 5×dendhardts, 1% SDS, 200 μg/ml ssDNA and 50 μg/ml tRNA. The rat collagenase cDNA (bp. 1-550 of locus RATCOL genbank accession M60616), rat stromelysin (ATCC, Rockville, Md.), or rat […] (genbank accession D00403) were labeled by random primed incorporation of ^32 P-dATP (Random Primed Labeling Kit, Boerhinger Manheim). After overnight hybridization at 42° C. overnight, the blot was washed in 1×SSPE at 37° C. and exposed to Kodak X-Ornat AP film for 24 hours at -70° C. with an intensifying screen. The blot was stripped with 50% formamide in 2×SSPE, checked for residual counts and reprobed. The resulting autoradiographs were digitized and analyzed with NIH image software and normalized for RNA loading.

[3] = system: collagenase; experiment: synovial collagenase expression in arthritic rats (Northern blot); format: in vivo, rat; details: BMOV-treated (with NAC) vs control, Day 18
Method: as §1

[4] = system: non-proliferating chondrocytes; experiment: viability of non-proliferating chondrocytes (high cell density); format: cell-based; details: 0-50 μM, 48 hours
Method: In order to compare the effect of orthovanadate on non-proliferating and proliferating chondrocytes, chondrocytes were plated at both high cell density (2×10^6 to 4×10^6 cells/per well on a six well plate) (nonproliferating) and at a lower cell density (5×10^5 to 1×10^6 cells/per well on a six well plate) (proliferating) and then maintained for 48 hours. The cells were then incubated in media (HAMS F12) containing 0-50 μM Orthovanadate for an additional 48 hours. The cells were harvested and the number of viable cells determined.

[5] = system: tumor cell lines; experiment: cell death of proliferating tumor cell lines; format: cell-based
Method: Fos and jun activity are also required for cellular proliferation in many tumor cell lines. Accordingly, the effect of orthovanadate on adherent cells and cell suspensions were examined. MDAY-D2 (a mouse lymphoid cell line grown in suspension) and HTB14 cells (an adherent human primary astrocytoma cell line) were incubated in media containing 0-50 μM orthovanadate for 48 hours. The cells were harvested and the number of viable cells determined.

[6] = system: MDAY-D2 tumor; experiment: MDAY-D2 tumor growth in vivo, orthovanadate, vanadyl sulphate, vanadyl hydroperoxide (Example 6B); parameters: species or system mice
Text: In order to examine the ability of vanadyl compounds to reduce tumor formation, growth and metastases, a specific animal model which allows investigation of all of these processes in the same animal was chosen. This model involves the injection of a metastatic haematopoietic cell line, MDAY-D2, into mice subcutaneously. These cells form a tumor at the site of injection and its size can be easily determined. In addition, these cells metastasize to the liver and metastases can be detected histologically after day 17 to 19. This model provides a very sensitive and reproducible approach to investigate the effect of vanadyl compounds on tumor growth and metastases.
In a separate experiment using the same animal model, the effect of orthovanadate, vanadyl sulphate and vanadyl hydroperoxide administration on tumor growth in vivo was examined. On Day 1, 20 mice were injected with 2×10^5 MDAY-D2 cell subcutaneously. The mice were divided into four groups of five mice. At day 5, the animals were injected subcutaneously with 50 μl of water alone or containing 10 mg/ml of orthovanadate, 10 mg/ml of vanadyl sulphate, or 10 mg/ml of vanadyl hydroperoxide. This treatment was continued daily for 16 days. At day 21, the mice were sacrificed and the tumors dissected and weighed.

[7] = system: tumor growth; experiment: tumor growth in vivo, orthovanadate and N-acetylcysteine (Example 7); parameters: species or system mice
Method: Since N-acetylcysteine is converted to glutathione in cells, higher levels of glutathione may not only reduce orthovanadate induced toxicity but may also reduce tumor formation.
Twenty mice were injected subcutaneously with 2×10^5 cells on Day 1. At day 4, the mice were divided into four groups of five mice. Group one (control) received subcutaneous injections of 50 μl of water. Group two received daily intraperitoneal injections of 50 μl of 250 mM N-acetylcysteine. Group three received daily subcutaneous injections of 50 μl of 10 mg/ml of orthovanadate. Group four received daily intraperitoneal injections of 50 μl of […] N-acetylcysteine and 20 minutes later received 50 μl of subcutaneous injection of 50 μl of 10 mg/ml of orthovanadate. On day 10 the treatment was stopped. The animals were sacrificed on Day 13 and analyzed for tumor growth.

| SMILES | Tumour weight, Average [1] | Tumour weight ([1]; individual mice) | percent inhibition of stromelysin gene expression [2] | percent inhibition of collagenase gene expression [3] | effect on chondrocytes plated at high cell density [4] | cell death ([5]; 0-50 μM) | cell death complete ([5]; within 3 days of continuous treatment) | detectable tumors ([6]; day 21) | animal deaths ([6]; groups of five, 10 mg/ml, 50 μl daily s.c.) | efficacy in reducing tumor growth ([6]; mouse, in vivo) | detectable tumors ([7]; day 13) | animal deaths ([7]; orthovanadate 50 μl 10 mg/ml s.c. daily) |
| --- | --- | --- | --- | --- | --- | --- | --- | --- | --- | --- | --- | --- |
| Cc1occc(=O)c1[O-].Cc1occc(=O)c1[O-].[O]=[V+2] [BMOV, bis(methylmaltolato) oxovanadium (IV)] | 0.15 | 0.4 and 0.12 and 0.07 and 0.04 | 58% | 78% |  |  |  |  |  |  |  |  |
| [Na+].[Na+].[Na+].[O]=[V]([O-])([O-])[O-] [orthovanadate, sodium orthovanadate] |  |  |  |  | did not effect | concentration dependent increase in cell death | over 98% | one mouse did not have detectable tumors | One animal died | most efficacy | two had no detectable tumors | One orthovanadate treated animal died |
